US11951131B2, “Anti-SLAMF7 chimeric antigen receptors” (The United States of America, as represented by the …, priority 2018, dated 2024)

Experiments:
[1] = system: IC9-Luc90-CD828Z CAR T cells; assay: AP1903 abrogation of CAR T-cell activity in MM.1S tumor-bearing mice; assay type: in vivo, NSG mice; details: 2×10^6 IC9-Luc90-CD828Z T cells plus vehicle control
Protocol: First, MM.1S human SLAMF7^+ multiple myeloma cell line tumors were established in immunodeficient mice. In this model, the MM.1S cells formed a solid cutaneous mass. Measurable tumors were allowed to develop over 7 days, and then the mice were treated with a single intravenous infusion of MSGV1-IC9-Luc90-CD828Z-transduced human T cells. NSG mice (NOD.Cg-Prkdc^scid Il2rg^tm1Wjl/SzJ) from The Jackson Laboratory, Bar Harbor, Me., were used. Mice received intradermal injections of 4×10^6 MM.1S cells. The cells were suspended in a 1:1 mixture of MATRIGEL™ gelatinous protein mixture (BD Biosciences) and PBS (Phosphate-buffered saline) for injection. Tumors were allowed to grow for 7 days, and then each mouse received a single intravenous infusion of human T cells that were transduced with one of 3 CARs: IC9-Luc90-CD828Z (suicide gene+anti-SLAMF7 CAR), Luc90-CD828Z (anti-SLAMF7 CAR alone), or a negative-control anti-CD19 CAR Hu19-CD828Z. A 4th group was left untreated. All groups included 5 mice. After CAR T-cell infusion, the tumors were measured with calipers every 3 days. The longest length and the length perpendicular to the longest length and the tumor thickness were multiplied together to obtain the tumor volume in mm^3. When the longest length reached 15 mm, mice were sacrificed. Animal studies were approved by the National Cancer Institute Animal Care and Use Committee.
MM.1S tumors were established in NSG mice as described in Example 9. The mice were treated with 2×10^6 IC9-Luc90-CD828Z T cells. The mice received 5 mg/kg of AP1903 intraeritoneally for either 3 days or 12 days after the CAR T-cell infusion. […] Also levels of IC9-Luc90-CD828Z CART cells in the mice receiving AP1903 were reduced as compared to the mice receiving the vehicle.

[2] = system: 293T; assay: IFN-gamma ELISA, CAR T cells with 293T target cells; assay type: cell-based, human; details: Table B-1; SLAMF7-negative cell line
Source text: (§1) MM.1S is a SLAMF7^+ multiple myeloma cell line that was obtained from American Type Culture Collection (ATCC). A549 is a BCMA-negative lung cancer cell line (ATCC). TC71 is a BCMA-negative sarcoma cell line. CCRF-CEM, 293T, and A549 are SLAMF7-negative cell lines (ATCC). COL0207, HepG2, U251, Panc10.05, and TC71 are […] that were kind gifts from Dr. Steven Rosenberg, National Cancer Institute. SLAMF7-K562 are K562 cells (ATCC) which were transduced with the gene for full-length SLAMF7. SLAMF7-RPMI are RPMI8226 cells (ATCC) which were transduced with the gene for full-length SLAMF7. NGFR-K562 are K562 cells which were transduced with the gene for low-affinity nerve growth factor (Kochenderfer et al., J. Immunother., 32(7): 689-702 (2009)). All of the human samples mentioned were obtained from patients enrolled in IRB-approved clinical trials at the National Cancer Institute.
(§2) One-hundred thousand SLAMF7^+ or SLAMF7-negative target cells were combined with 100,000 CAR-transduced T cells in duplicate wells of a 96 well round bottom plate in 200 µL of AIM V™ medium (Invitrogen) plus 5% human serum. […]
(§3) The T cells columns indicate whether T cells were transduced with Luc90-CD828Z, Luc63-CD828Z, or were untransduced. The % CAR^+ in Table B-1 was determined by staining the T cells with Protein L. Except for the % CAR^+ column, all values are pg/mL of IFN-gamma. […]

[3] = system: U251; assay: IFN-gamma ELISA, CAR T cells with U251 target cells; assay type: cell-based, human; details: Table B-2
Source text: as §1, §2, §3

[4] = system: Panc 10.05; assay: IFN-gamma ELISA, CAR T cells with Panc 10.05 target cells; assay type: cell-based, human; details: Table B-2
Source text: as §1, §2, §3

[5] = system: SLAMF7^+ target cells; assay: IFN-gamma ELISA and functional assays; assay type: cell-based, human
Protocol: (§4) One-hundred thousand SLAMF7^+ or SLAMF7-negative target cells were combined with 100,000 CAR-transduced T cells in duplicate wells of a 96 well round bottom plate in 200 µL of AIM V™ medium (Invitrogen) plus 5% human serum. The plates were incubated at 37° C. for 18-20 hours. Following the incubation, ELISAs (enzyme-linked immunosorbent assays) for IFNγ were performed by using standard methods.
CAR-expressing T cells cultured alone produced very low levels of IFNγ. IFNγ production of T cells expressing a CAR with a 4-1BB moiety, Luc90-CD8BBZ, was compared to IFNγ production of T cells expressing Luc90-CD828Z (Table C). […] Low levels of soluble SLAMF7 are found in the serum of some MM patients (see Tai, et al., Blood, 112(4): 1329-1337 (2008)). IFNγ ELISA assays were conducted to determine if adding SLAMF7 to cultures of anti-SLAMF7 CAR T cells plus target cells could block IFNγ release by the CAR T cells (Table D). IFNγ release by the CART cells was used as a measure recognition of the SLAMF7^+ target cells by the CAR T cells. The concentrations of soluble SLAMF7 added to the cultures were similar to those found in the blood of patients. Blocking of SLAMF7^+ target cell recognition by the soluble SLAMF7 was not observed. Also, activation of the anti-SLAMF7 CAR T cells by the soluble SLAMF7 was not observed.

[6] = system: A549; assay: IFN-gamma ELISA, CAR T cells with A549 target cells; assay type: cell-based, human; details: Table B-2; SLAMF7-negative
Source text: as §1, §2, §3

[7] = system: SLAMF7-RPMI; assay: IFN-gamma ELISA, CAR T cells cultured overnight with SLAMF7-RPMI target cells; assay type: cell-based, human
Source text: as §1, §4
The T cells columns indicate whether T cells were transduced with Luc90-CD828Z, Luc63-CD828Z, or were untransduced. The % CAR^+ in Table B-1 was determined by staining the T cells with Protein L. Except for the % CAR^+ column, all values are pg/mL of IFN-gamma. T cells that were either untransduced or transduced with one of the indicated CARs were cultured with target cells overnight and a standard IFN-gamma ELISA was performed on the culture supernatant.
All values are pg/mL of IFN-gamma. T cells that were either untransduced or transduced with one of the indicated CARs were cultured with target cells overnight, and a standard IFN-gamma ELISA was performed on the culture supernatant.
The values in the cells are pg/mL of IFN-gamma. T cells that were either untransduced or transduced with one of the indicated CARs were cultured with target cells overnight, and a standard IFN-gamma ELISA was performed on the culture supernatant. The concentrations of 0, 50, or 200 ng/mL at the top of each column indicates the concentration of soluble SLAMF7 added to all T cell plus target cell overnight cultures in that column. The soluble SLAMF7 was added at the beginning of the overnight culture.

[8] = system: COLO 205; assay: IFN-gamma ELISA, CAR T cells with COLO 205 target cells; assay type: cell-based, human; details: Table B-1
Source text: as §1, §2, §3

Substance	tumor outcome in mice receiving vehicle instead of AP1903 [1]	IFN-gamma, target cells 293T [2] [pg/mL]	IFN-gamma, target cells U251 [3] [pg/mL]	IFN-gamma, target cells Panc 10.05 [4] [pg/mL]	function of T cells expressing the CAR, overall comparison ([5]; ELISA assays and CD107a degranulation experiments, versus huLuc63-CD828Z)	SLAMF7-specific IFNγ release, comparison of CARs ([5]; Luc90-CD828Z versus huLuc63-CD828Z, most experiments)	IFN-gamma, target cells A549 [6] [pg/mL]	IFN-gamma, target cells SLAMF7-RPMI ([7]; Table B-1, overnight culture, ELISA on supernatant) [pg/mL]	IFN-gamma, target cells SLAMF7-RPMI8226 ([7]; Table C, overnight culture) [pg/mL]	IFN-gamma, target cells SLAMF7 RPMI 0 ng/ml ([7]; Table D, soluble SLAMF7 added 0 ng/ml) [pg/mL]	IFN-gamma, target cells SLAMF7 RPMI 50 ng/ml ([7]; Table D, soluble SLAMF7 added 50 ng/ml) [ng/mL]	IFN-gamma, target cells CD319 RPMI 200 ng/ml ([7]; Table D, soluble SLAMF7 added 200 ng/ml) [pg/mL]	IFN-gamma, target cells COLO 205 [8] [pg/mL]
IC9-Luc90-CD828Z: CAR plus suicide gene construct (SEQ ID NO: 31): IC9 suicide gene 5′ to the CAR, T2A, Luc90-CD828Z	tumor elimination												
Luc90-CD828Z: anti-SLAMF7 CAR (SEQ ID NO: 27): murine Luc90 scFv, human CD8a hinge and TM, CD28 and CD3ζ domains; tested as transduced T cells		37	27	36	superior	greater	79	21293	20832	23538	23.315	21301	19
